Results published in US20250073340A1, “SPIROCYCLIC MDM2 MODULATOR AND USES THEREOF” (Newave Pharmaceutical Inc., priority 2021, published 2025).

Tests used:
[1] = biological target: MDM2 (Homo sapiens (Human), UniProt Q00987); test: In vitro MDM2 HTRF assay (inhibition of p53-MDM2 interaction); type: binding; details: GST-MDM2 / biotinylated p53 peptide
[2] = tested on: BCL-2-dependent acute lymphoblastic leukemia (ALL) cell line RS4;11 overexpressing Bcl-2 G101V; test: cells; type: cell-based; details: Homo sapiens, RS4-11; about 72 hours, ATPlite luminescence; read-out: RS4;11-G101V IC50
Protocol: Biological Example 2: In vitro Anti-proliferation Assay in BCL-2-dependent acute lymphoblastic leukemia (ALL) cell line RS4; 11 overexpressing Bcl-2 G101V
Cell antiproliferation was assayed by PerkinElmer ATPlite™ Luminescence Assay System. Briefly, the various test cancer cell lines were plated at a density of about 1×10^4 cells per well in Costar 96-well plates, and were incubated with different concentrations of compounds for about 72 hours in medium supplemented with 5% FBS or 10% normal human serum (NHS). One lyophilized substrate solution vial was then reconstituted by adding 5 mL of substrate buffer solution, and was agitated gently until the solution was homogeneous. About 50 μL of mammalian cell lysis solution was added to 100 μL of cell suspension per well of a microplate, and the plate was shaken for about five minutes in an orbital shaker at −700 rpm. This procedure was used to lyse the cells and to stabilize the ATP. Next, 50 μL substrate solution was added to the wells and microplate was shaken for five minutes in an orbital shaker at −700 rpm. Finally, the luminescence was measured by a PerkinElmer TopCount® Microplate Scintillation Counter. Such assays, carried out with a range of doses of test compounds, allowed the determination of the cellular anti-antiproliferative IC50 of the compounds of the present invention.

Sequence of MDM2 (Q00987 whole entry): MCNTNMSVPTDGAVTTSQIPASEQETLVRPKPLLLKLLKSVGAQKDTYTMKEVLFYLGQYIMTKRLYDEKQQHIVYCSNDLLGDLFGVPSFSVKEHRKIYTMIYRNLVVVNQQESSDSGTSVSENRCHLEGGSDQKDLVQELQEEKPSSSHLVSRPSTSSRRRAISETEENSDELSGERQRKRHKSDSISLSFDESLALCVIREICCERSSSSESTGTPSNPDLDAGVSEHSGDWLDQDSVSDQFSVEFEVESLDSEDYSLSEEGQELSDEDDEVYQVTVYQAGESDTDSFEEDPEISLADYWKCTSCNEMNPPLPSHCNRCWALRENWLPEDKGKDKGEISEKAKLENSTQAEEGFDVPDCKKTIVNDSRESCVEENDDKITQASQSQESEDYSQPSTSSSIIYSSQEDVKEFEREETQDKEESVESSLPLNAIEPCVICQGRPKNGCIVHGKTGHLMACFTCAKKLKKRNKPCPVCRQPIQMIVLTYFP

IC50 [1]	IC50 [2]	Compound
1.54 nM	10.1 nM	COc1cc(C(=O)NCCCC#Cc2cccc3c2CN(C2CCC(=O)NC2=O)C3=O)ccc1NC(=O)[C@@H]1N[C@@H](CC(C)(C)C)[C@@]2(CNc3cc(Cl)ccc32)[C@H]1c1cccc(Cl)c1F (stereo partly drawn) [Example 16, (2′S,3S,4′S,5′R)-6-chloro-4′-(3-chloro-2-fluorophenyl)-N-(4-((5-(2-(2,6-dioxopiperidin-3-yl)-1-oxoisoindolin-4-yl)pent-4-yn-1-yl)carbamoyl)-2-methoxyphenyl)-2′-neopentylspiro[indoline-3,3′-pyrrolidine]-5′-carboxamide]
1.36 nM	3.82 nM	COc1cc(C(=O)NCCCC#Cc2cccc3c2CN([C@@H]2CCC(=O)NC2=O)C3=O)ccc1NC(=O)[C@@H]1N[C@@H](CC(C)(C)C)[C@@]2(CNc3cc(Cl)ccc32)[C@H]1c1cccc(Cl)c1F [Example 17, (2′S,3S,4′S,5′R)-6-chloro-4′-(3-chloro-2-fluorophenyl)-N-(4-((5-(2-((R)-2,6-dioxopiperidin-3-yl)-1-oxoisoindolin-4-yl)pent-4-yn-1-yl)carbamoyl)-2-methoxyphenyl)-2′-neopentylspiro[indoline-3,3′-pyrrolidine]-5′-carboxamide]
3.67 nM	31.9 nM	COc1cc(C(=O)N2CCC(C#Cc3cccc4c3CN(C3CCC(=O)NC3=O)C4=O)CC2)ccc1NC(=O)[C@@H]1N[C@@H](CC(C)(C)C)[C@@]2(CNc3cc(Cl)ccc32)[C@H]1c1cccc(Cl)c1F (stereo partly drawn) [Example 20, (2′S,3S,4′S,5′R)-6-chloro-4′-(3-chloro-2-fluorophenyl)-2′-(2,2-dimethylpropyl)-N-[4-(4-{2-[2-(2,6-dioxopiperidin-3-yl)-1-oxo-3H-isoindol-4-yl]ethynyl}piperidine-1-carbonyl)-2-methoxyphenyl]-1,2-dihydrospiro[indole-3,3′-pyrrolidine]-5′-carboxamide]
2.97 nM	21.1 nM	COc1cc(C(=O)N2CCC[C@H](CC#Cc3cccc4c3CN(C3CCC(=O)NC3=O)C4=O)C2)ccc1NC(=O)[C@@H]1N[C@@H](CC(C)(C)C)[C@@]2(CNc3cc(Cl)ccc32)[C@H]1c1cccc(Cl)c1F (stereo partly drawn) [Example 24, (2′S,3S,4′S,5′R)-6-chloro-4′-(3-chloro-2-fluorophenyl)-N-(4-((3R)-3-(3-(2-(2,6-dioxopiperidin-3-yl)-1-oxoisoindolin-4-yl)prop-2-yn-1-yl)piperidine-1-carbonyl)-2-methoxyphenyl)-2′-neopentylspiro[indoline-3,3′-pyrrolidine]-5′-carboxamide]
46.8 nM	448 nM	COc1cc(N2CCC([C@@H]3C[C@H]3C#Cc3cccc4c3CN(C3CCC(=O)NC3=O)C4=O)CC2)ccc1NC(=O)[C@@H]1N[C@@H](CC(C)(C)C)[C@@]2(CNc3cc(Cl)ccc32)[C@H]1c1cccc(Cl)c1F (stereo partly drawn) [Example 26, (2′S,3S,4′S,5′R)-6-chloro-4′-(3-chloro-2-fluorophenyl)-2′-(2,2-dimethylpropyl)-N-(4-{4-[(1S,2R)-2-{2-[2-(2,6-dioxopiperidin-3-yl)-1-oxo-3H-isoindol-4-yl]ethynyl}cyclopropyl]piperidin-1-yl}-2-methoxyphenyl)-1,2-dihydrospiro[indole-3,3′-pyrrolidine]-5′-carboxamide]
2.29 nM	104 nM	COc1cc(C(=O)N[C@@H]2CCC[C@H](C#Cc3cccc4c3CN(C3CCC(=O)NC3=O)C4=O)C2)ccc1NC(=O)[C@@H]1N[C@@H](CC(C)(C)C)[C@@]2(CNc3cc(Cl)ccc32)[C@H]1c1cccc(Cl)c1F (stereo partly drawn) [Example 33, (2′S,3S,4′S,5′R)-6-chloro-4′-(3-chloro-2-fluorophenyl)-2′-(2,2-dimethylpropyl)-N-(4-{[(1R,3S)-3-{2-[2-(2,6-dioxopiperidin-3-yl)-1-oxo-3H-isoindol-4-yl]ethynyl}cyclohexyl]carbamoyl}-2-methoxyphenyl)-1,2-dihydrospiro[indole-3,3′-pyrrolidine]-5′-carboxamide]

The remaining lines, values behind:

Compound	IC50 [1]	IC50 [2]
COc1cc(C(=O)NCCCC#Cc2cccc3c2CN([C@H]2CCC(=O)NC2=O)C3=O)ccc1NC(=O)[C@@H]1N[C@@H](CC(C)(C)C)[C@@]2(CNc3cc(Cl)ccc32)[C@H]1c1cccc(Cl)c1F [Example 18, (2′S,3S,4′S,5′R)-6-chloro-4′-(3-chloro-2-fluorophenyl)-N-(4-((5-(2-((S)-2,6-dioxopiperidin-3-yl)-1-oxoisoindolin-4-yl)pent-4-yn-1-yl)carbamoyl)-2-methoxyphenyl)-2′-neopentylspiro[indoline-3,3′-pyrrolidine]-5′-carboxamide]	1.3 nM	5.91 nM
COc1cc(C(=O)NC23CC(C#Cc4cccc5c4CN(C4CCC(=O)NC4=O)C5=O)(C2)C3)ccc1NC(=O)[C@@H]1N[C@@H](CC(C)(C)C)[C@@]2(CNc3cc(Cl)ccc32)[C@H]1c1cccc(Cl)c1F (stereo partly drawn) [Example 21, (2′S,3S,4′S,5′R)-6-chloro-4′-(3-chloro-2-fluorophenyl)-2′-(2,2-dimethylpropyl)-N-{4-[(3-{2-[2-(2,6-dioxopiperidin-3-yl)-1-oxo-3H-isoindol-4-yl]ethynyl}bicyclo[1.1.1]pentan-1-yl)carbamoyl]-2-methoxyphenyl}-1,2-dihydrospiro[indole-3,3′-pyrrolidine]-5′-carboxamide]	3.45 nM	448 nM
COc1cc(N2CCC3(CC2)CC([C@@H]2C[C@H]2C#Cc2cccc4c2CN(C2CCC(=O)NC2=O)C4=O)C3)ccc1NC(=O)[C@@H]1N[C@@H](CC(C)(C)C)[C@@]2(CNc3cc(Cl)ccc32)[C@H]1c1cccc(Cl)c1F (stereo partly drawn) [Example 22, (2′S,3S,4′S,5′R)-6-chloro-4′-(3-chloro-2-fluorophenyl)-N-(4-(2-((1S,2R)-2-((2-(2,6-dioxopiperidin-3-yl)-1-oxoisoindolin-4-yl)ethynyl)cyclopropyl)-7-azaspiro[3.5]nonan-7-yl)-2-methoxyphenyl)-2′-neopentylspiro[indoline-3,3′-pyrrolidine]-5′-carboxamide]	272 nM	> 1000 nM
COc1cc(N2CCC3(CC2)CC([C@H]2C[C@@H]2C#Cc2cccc4c2CN(C2CCC(=O)NC2=O)C4=O)C3)ccc1NC(=O)[C@@H]1N[C@@H](CC(C)(C)C)[C@@]2(CNc3cc(Cl)ccc32)[C@H]1c1cccc(Cl)c1F (stereo partly drawn) [Example 23, (2′S,3S,4′S,5′R)-6-chloro-4′-(3-chloro-2-fluorophenyl)-N-(4-(2-((1R,2S)-2-((2-(2,6-dioxopiperidin-3-yl)-1-oxoisoindolin-4-yl)ethynyl)cyclopropyl)-7-azaspiro[3.5]nonan-7-yl)-2-methoxyphenyl)-2′-neopentylspiro[indoline-3,3′-pyrrolidine]-5′-carboxamide]	169 nM	> 1000 nM
COc1cc(C(=O)N2CCC[C@@H](CC#Cc3cccc4c3CN(C3CCC(=O)NC3=O)C4=O)C2)ccc1NC(=O)[C@@H]1N[C@@H](CC(C)(C)C)[C@@]2(CNc3cc(Cl)ccc32)[C@H]1c1cccc(Cl)c1F (stereo partly drawn) [Example 25, (2′S,3S,4′S,5′R)-6-chloro-4′-(3-chloro-2-fluorophenyl)-N-(4-((3S)-3-(3-(2-(2,6-dioxopiperidin-3-yl)-1-oxoisoindolin-4-yl)prop-2-yn-1-yl)piperidine-1-carbonyl)-2-methoxyphenyl)-2′-neopentylspiro[indoline-3,3′-pyrrolidine]-5′-carboxamide]	3.72 nM	21.6 nM
COc1cc(N2CCC([C@H]3C[C@@H]3C#Cc3cccc4c3CN(C3CCC(=O)NC3=O)C4=O)CC2)ccc1NC(=O)[C@@H]1N[C@@H](CC(C)(C)C)[C@@]2(CNc3cc(Cl)ccc32)[C@H]1c1cccc(Cl)c1F (stereo partly drawn) [Example 27, (2′S,3S,4′S,5′R)-6-chloro-4′-(3-chloro-2-fluorophenyl)-2′-(2,2-dimethylpropyl)-N-(4-{4-[(1R,2S)-2-{2-[2-(2,6-dioxopiperidin-3-yl)-1-oxo-3H-isoindol-4-yl]ethynyl}cyclopropyl]piperidin-1-yl}-2-methoxyphenyl)-1,2-dihydrospiro[indole-3,3′-pyrrolidine]-5′-carboxamide]	16.5 nM	> 1000 nM
COc1cc(C(=O)N[C@H]2CCC[C@@H](C#Cc3cccc4c3CN(C3CCC(=O)NC3=O)C4=O)C2)ccc1NC(=O)[C@@H]1N[C@@H](CC(C)(C)C)[C@@]2(CNc3cc(Cl)ccc32)[C@H]1c1cccc(Cl)c1F (stereo partly drawn) [Example 32, (2′S,3S,4′S,5′R)-6-chloro-4′-(3-chloro-2-fluorophenyl)-2′-(2,2-dimethylpropyl)-N-(4-{[(1S,3R)-3-{2-[2-(2,6-dioxopiperidin-3-yl)-1-oxo-3H-isoindol-4-yl]ethynyl}cyclohexyl]carbamoyl}-2-methoxyphenyl)-1,2-dihydrospiro[indole-3,3′-pyrrolidine]-5′-carboxamide]	2.59 nM	83.2 nM
COc1cc(C(=O)N[C@@H]2CCC[C@@H](C#Cc3cccc4c3CN(C3CCC(=O)NC3=O)C4=O)C2)ccc1NC(=O)[C@@H]1N[C@@H](CC(C)(C)C)[C@@]2(CNc3cc(Cl)ccc32)[C@H]1c1cccc(Cl)c1F (stereo partly drawn) [Example 34, (2′S,3S,4′S,5′R)-6-chloro-4′-(3-chloro-2-fluorophenyl)-2′-(2,2-dimethylpropyl)-N-(4-{[(1R,3R)-3-{2-[2-(2,6-dioxopiperidin-3-yl)-1-oxo-3H-isoindol-4-yl]ethynyl}cyclohexyl]carbamoyl}-2-methoxyphenyl)-1,2-dihydrospiro[indole-3,3′-pyrrolidine]-5′-carboxamide]	2 nM	122 nM
